Measured values from ChEMBL document CHEMBL5380850, “Discovery of the First Raptor (Regulatory-Associated Protein of mTOR) Inhibitor as a New Type of Antiadipogenic Agent” (J Med Chem, 2023).
The source made the active and inactive calls. No cut-off for these calls is given here.

Experiments:
3T3-L1 [1] = assay: Anti-adipogenic activity against mouse 3T3-L1 cells assessed as decrease in triglyceride level at 1 uM by Oil Red O staining based spectroscopic analysis; assay type: functional; design: scale not given: the % may be the effect or the level left
3T3-L1 [2] = assay: Anti-adipogenic activity against mouse 3T3-L1 cells assessed as decrease in triglyceride level at 0.01 to 10 uM by Oil Red O staining based microscopic analysis; assay type: functional, cell-based; details: dose 0.01-10 µM
3T3-L1 [3] = assay: Anti-adipogenic activity against mouse 3T3-L1 cells assessed as downregulation of C/EBPalpha mRNA expression level at 0.1 to 1 uM incubated for 24 hrs by RT-qPCR analysis; assay type: functional, cell-based; details: dose 0.1-1 µM
3T3-L1 [4] = assay: Anti-adipogenic activity against mouse 3T3-L1 cells assessed as downregulation of DGAT2 mRNA expression level at 0.1 to 1 uM incubated for 6 days by RT-qPCR analysis; assay type: functional, cell-based; details: dose 0.1-1 µM, time 6.0 day
3T3-L1 [5] = assay: Anti-adipogenic activity against mouse 3T3-L1 cells assessed as downregulation of C/EBPbeta protein expression level at 0.1 to 1 uM incubated for 24 hrs by Western blot analysis; assay type: functional, cell-based; details: dose 0.1-1 µM
Mus musculus [6] = assay: Anti-obesity activity in high fat diet-induced obese C57BL/6J mouse assessed as reduction in visceral fat content by measuring inguen white adipose tissue weight at 40 mg/kg, ip administered every two days for 46 days; assay type: functional, organism-based; details: time 46.0 day
Mus musculus [7] = assay: Anti-obesity activity in high fat diet-induced obese C57BL/6J mouse model assessed as reduction in plasma insulin level at 40 mg/kg, ip administered every two days for 46 days; assay type: functional, organism-based; details: time 46.0 day
Mus musculus [8] = assay: Anti-obesity activity in high fat diet-induced obese C57BL/6J mouse model assessed as reduction in plasma ALT level at 40 mg/kg, ip administered every two days for 46 days; assay type: functional, organism-based; details: time 46.0 day
Mus musculus [9] = assay: Anti-obesity activity in high fat diet-induced obese C57BL/6J mouse model assessed as change in daily food uptake at 40 mg/kg, ip administered every two days for 46 days; assay type: functional, organism-based; details: time 46.0 day
Mus musculus [10] = assay: Anti-obesity activity in high fat diet-induced obese C57BL/6J mouse model assessed as increase in […] expression level in inguen white adipose tissue at 40 mg/kg, ip administered every two days for 46 days by immunohistochemical analysis; assay type: functional, organism-based; details: time 46.0 day
Mus musculus [11] = assay: Anti-obesity activity in high fat diet-induced obese C57BL/6J mouse model assessed as decrease in brown adipocyte size at 40 mg/kg, ip administered every two days for 46 days by Hand E staining based microscopic analysis; assay type: functional, organism-based; details: time 46.0 day
[12] = target: Serine/threonine-protein kinase mTOR (Mus musculus) (UniProt Q9JLN9); assay: Inhibition of mTOR signalling in mouse 3T3-L1 cells assessed as upregulation of LC3I expression level at 0.1 to 10 uM incubated for 24 hrs by Western blot analysis; assay type: cell-based; details: dose 0.1-10 µM
mTORC1 (Mus musculus) [13] = target: mTORC1 (Mus musculus) (UniProt Q9JLN9); assay: Inhibition of mTORC1 formation in mouse 3T3-L1 cells assessed as mLST8 expression level at 10 uM incubated for 24 hrs by reciprocal co-immunoprecipitation assay; assay type: cell-based
mTORC1 (Mus musculus) [14] = target: mTORC1 (Mus musculus) (UniProt Q9JLN9); assay: Inhibition of mTORC1 formation in siRNA mediated Raptor knockdown mouse 3T3-L1 cells assessed as decrease in phosphorylaed-S6K1 expression level at 10 uM incubated for 24 hrs by Western blot analysis; assay type: cell-based
3T3-L1 [15] = assay: Anti-adipogenic activity in mouse 3T3-L1 cells assessed as increase in mCherry-LC3B-labeled autophagosomes at 10 uM by Immunofluorescence analysis; assay type: functional, cell-based

inhibition [12]: Active
inhibition (mTORC1 (Mus musculus) [13]): Active
inhibition (mTORC1 (Mus musculus) [14]): Active
SMILES: C=C(C)[C@@]12OC3(c4ccccc4)O[C@@H]1[C@@H]1[C@H](O)[C@](Cl)(COC(=O)c4ccccc4)[C@@H](O)[C@]4(O)C(=O)C(C)=C[C@H]4[C@@]1(O3)[C@H](C)[C@H]2OC(C)=O
Activity (3T3-L1 [1]): >50%
Activity (3T3-L1 [2]): Active
Activity (3T3-L1 [3]): Active
Activity (3T3-L1 [4]): Active
Activity (3T3-L1 [5]): Active
Activity (Mus musculus [6]): Active
Activity (Mus musculus [7]): Active
Activity (Mus musculus [8]): Active
Activity (Mus musculus [9]): inactive
Activity (Mus musculus [10]): Active
Activity (Mus musculus [11]): Active
Activity (3T3-L1 [15]): Active
